Experimental data reported in ChEMBL document CHEMBL5230122, “Natural products and other inhibitors of F1FO ATP synthase” (Eur J Med Chem, 2020).
Square brackets hold non-standard residues; d marks the D form. Peptide text beside a SMILES is read from it. * marks the point of attachment. X3 = CC(C)C[C@@H](CN1CCC[N+]2=C1CCC2)N*; X4 = CC(C)C[C@@H](C[N+]1=C2CCCN2CCC1)N*; Pip = O=C(O)[C@@H]1CCCCN1; Iva = CC[C@](C)(N)C(=O)O; Aib = CC(C)(N)C(=O)O; βAla = NCCC(=O)O

Assays:
NCI-H292 = assay: Anticancer activity against human NCI-H292 cells assessed as reduction in cell proliferation incubated for 48 hrs by Calcein AM and Pluronic F-127 staining based fluorescence plate reader analysis; type: functional; details: NCI-H292, 48 h
MDA-MB-231 = assay: Antiproliferative activity against human MDA-MB-231 cells assessed as reduction in cell viability incubated for 48 hrs by MTT assay; type: functional, cell-based; details: MDA-MB-231, 48 h
SNU-398 = assay: Anticancer activity against human SNU-398 cells expressing high level of SALL4 assessed as reduction in cell viability incubated for 72 hrs by CellTiter-Glo assay; type: functional, cell-based; details: SNU-398, 72 h
[1] = Antiproliferative activity against human Keratinocyte assessed as inhibition of cell proliferation incubated for 2 days by Beckman Coulter analysis; type: functional, cell-based; details: 48 h
Bos taurus = organism: Bos taurus; assay: Inhibition of bovine F0F1-ATPase at 50 uM
MCF7 = assay: Antiproliferative activity against human MCF7 cells assessed as reduction in cell viability incubated for 48 hrs by MTT assay; type: functional, cell-based; details: MCF7, 48 h
HL-60 = assay: Antiproliferative activity against human HL-60 cells assessed as reduction in cell viability incubated for 48 hrs by MTT assay; type: functional, cell-based; details: HL-60, 48 h
SMMC-7721 = assay: Antiproliferative activity against human SMMC-7721 cells assessed as reduction in cell viability incubated for 48 hrs by MTT assay; type: functional, cell-based; details: SMMC-7721, 48 h
A549 = assay: Antiproliferative activity against human A549 cells assessed as reduction in cell viability incubated for 48 hrs by MTT assay; type: functional, cell-based; details: A549, 48 h
SW480 = assay: Antiproliferative activity against human SW480 cells assessed as reduction in cell viability incubated for 48 hrs by MTT assay; type: functional, cell-based; details: SW480, 48 h

Structure (SMILES)	IC50 (MCF7)	IC50 (HL-60)	IC50 (SMMC-7721)	IC50 (A549)	IC50 (SW480)	further results
COC[C@@H](C[C@H]1O[C@@](O)([C@H](O)[C@@H]2C[C@H](OC)[C@@H](O)CC/C=C(C)/C=C/[C@@H](O[C@@H]3O[C@@H](C)[C@H](OC)[C@@H](O)[C@@H]3O)[C@H](C)/C=C(C)/C=C(C)/C=C(/C)C(=O)O2)[C@H](C)[C@@H](O)[C@H]1C)O[C@H]1C[C@](C)(O)[C@@H](O[C@H]2C[C@@H](OC)[C@H](O)[C@@H](C)O2)[C@H](C)O1						IC50 (NCI-H292): 0.15 µM
CC[C@@H]1O[C@@](C)(/C=C/C=C/C=C/c2cc(OC)c(C)c(=O)o2)[C@@H](O)[C@]1(C)O						IC50 (MDA-MB-231): > 50 µM
COC[C@@H](C[C@H]1O[C@@](O)(C[C@@H]2C[C@H](OC)CCC/C=C(C)/C=C/[C@@H](O[C@@H]3O[C@@H](C)[C@@H](OC)[C@@H](O)[C@@H]3O)[C@H](C)/C=C(C)/C=C(C)/C=C(\C)C(=O)O2)[C@H](C)[C@@H](O)[C@H]1C)O[C@H]1C[C@](C)(O)[C@@H](O[C@H]2C[C@@H](OC)[C@H](O)[C@@H](C)O2)[C@H](C)O1						IC50 (NCI-H292): < 0.1 µM
CC[C@](C)(NC(=O)[C@H](CC(C)C)NC(=O)[C@H](C)NC(=O)C(C)(C)NC(=O)[C@@H]1CCCCN1C(=O)C(C)(C)NC(=O)C(C)(C)NC(=O)CNC(=O)CCNC(=O)[C@H](CC(C)C)NC(=O)C(C)(C)NC(=O)[C@](C)(CC)NC(=O)[C@@H]1CCCCN1C(=O)C(C)(C)NC(=O)[C@@H]1CCCCN1C(C)=O)C(=O)N[C@@H](CC(C)C)C[N+]1=C2CCCN2CCC1 [EFRAPEPTIN G] (Ac-[Pip][Aib][Pip][Iva][Aib]L[βAla]G[Aib][Aib][Pip][Aib]AL[Iva]-X4)						IC50 (SNU-398): 0.009 µM
CN1C(=O)C(Cc2ccc3ccccc3c2)N=C(c2ccc(O)cc2)c2cc(Cl)ccc21 (stereo not given)						EC50 [1]: 3.1 µM
COC[C@@H](C[C@H]1O[C@@](O)([C@H](O)[C@@H]2C[C@H](OC)[C@@H](O)CC/C=C(C)/C=C/[C@@H](O[C@@H]3O[C@@H](C)[C@H](OC)[C@@H](O)[C@@H]3O)[C@H](C)/C=C/C=C(C)/C=C(\C)C(=O)O2)[C@H](C)[C@@H](O)[C@H]1C)O[C@H]1C[C@](C)(O)[C@@H](O[C@H]2C[C@@H](OC)[C@H](O)[C@@H](C)O2)[C@H](C)O1						IC50 (NCI-H292): 0.11 µM
COc1ccc(/C=C/c2cc(OC)cc(OCCCC[P+](c3ccccc3)(c3ccccc3)c3ccccc3)c2)cc1						inhibition (Bos taurus): > 40%
COc1cc(=O)oc(/C=C/C=C/C=C/[C@]2(C)O[C@]3(C)[C@@H](O)[C@](C)(O[C@@H]3C)[C@H]2O)c1C						IC50 (MDA-MB-231): > 5.43 µM
COC[C@@H](C[C@H]1O[C@@](O)(C[C@@H]2C[C@H](OC)CCC/C=C(C)/C=C/[C@@H](O[C@@H]3O[C@@H](C)[C@H](OC)[C@@H](O)[C@@H]3O)[C@H](C)/C=C(C)/C=C(C)/C=C(\C)C(=O)O2)[C@H](C)[C@@H](O)[C@H]1C)O[C@H]1C[C@](C)(O)[C@@H](O[C@H]2C[C@@H](OC)[C@H](O)[C@@H](C)O2)[C@H](C)O1						IC50 (NCI-H292): 0.024 µM
COC[C@@H](C[C@H]1O[C@@](O)([C@H](O)[C@@H]2C[C@H](OC)CCC/C=C(C)/C=C/[C@@H](O[C@@H]3O[C@@H](C)[C@H](OC)[C@@H](O)[C@@H]3O)[C@H](C)/C=C(C)/C=C(C)/C=C(\C)C(=O)O2)[C@H](C)[C@@H](O)[C@H]1C)O[C@H]1C[C@](C)(O)[C@@H](O[C@H]2C[C@@H](OC)[C@H](O)[C@@H](C)O2)[C@H](C)O1						IC50 (NCI-H292): 0.007 µM
CC(=O)Oc1cc(/C=C/c2ccc(OCCCC[P+](c3ccccc3)(c3ccccc3)c3ccccc3)cc2)cc(OC(C)=O)c1						inhibition (Bos taurus): > 40%
CC[C@](C)(NC(=O)[C@@H]1CCCCN1C(=O)C(C)(C)NC(=O)[C@@H]1CCCCN1C(C)=O)C(=O)NC(C)(C)C(=O)N[C@@H](CC(C)C)C(=O)NCCC(=O)NCC(=O)NC(C)(C)C(=O)NC(C)(C)C(=O)N1CCCC[C@H]1C(=O)NC(C)(C)C(=O)N[C@@H](C)C(=O)N[C@@H](CC(C)C)C(=O)NC(C)(C)C(=O)N[C@@H](CC(C)C)CN1CCC[N+]2=C1CCC2 (Ac-[Pip][Aib][Pip][Iva][Aib]L[βAla]G[Aib][Aib][Pip][Aib]AL[Aib]-X3)						IC50 (SNU-398): 0.005 µM
COc1cc(=O)oc(/C=C/C=C/C=C/[C@@H]2O[C@]3(C)[C@@H](OC(C)=O)[C@](C)(O[C@@H]3[C@@H](C)O)[C@H]2O)c1C						IC50 (MDA-MB-231): 0.08 µM
COc1cc(/C=C/c2ccc(OCCCC[P+](c3ccccc3)(c3ccccc3)c3ccccc3)cc2)cc(OC)c1						inhibition (Bos taurus): > 40%
CC(=O)Oc1ccc(/C=C/c2cc(OCCCC[P+](c3ccccc3)(c3ccccc3)c3ccccc3)cc(OC(C)=O)c2)cc1						inhibition (Bos taurus): > 40%
CC[C@H]1O[C@@]2(C)[C@H](O)[C@@]1(C)O[C@@H](/C=C/C=C/C=C/c1oc(=O)cc(OC)c1C)[C@@H]2O						IC50 (MDA-MB-231): 8.79 µM
CC[C@](C)(NC(=O)[C@H](CC(C)C)NC(=O)[C@H](C)NC(=O)C(C)(C)NC(=O)[C@@H]1CCCCN1C(=O)C(C)(C)NC(=O)C(C)(C)NC(=O)CNC(=O)CCNC(=O)[C@H](CC(C)C)NC(=O)[C@](C)(CC)NC(=O)[C@](C)(CC)NC(=O)[C@@H]1CCCCN1C(=O)C(C)(C)NC(=O)[C@@H]1CCCCN1C(C)=O)C(=O)N[C@@H](CC(C)C)CN1CCC[N+]2=C1CCC2 (Ac-[Pip][Aib][Pip][Iva][Iva]L[βAla]G[Aib][Aib][Pip][Aib]AL[Iva]-X3)						IC50 (SNU-398): 0.006 µM
COC[C@H](O)C[C@H]1O[C@@](O)(C[C@@H]2C[C@H](OC)CCC/C=C(C)/C=C/[C@@H](O[C@@H]3O[C@@H](C)[C@@H](OC)[C@@H](O)[C@@H]3O)[C@H](C)/C=C(C)/C=C(C)/C=C(\C)C(=O)O2)[C@H](C)[C@@H](O)[C@H]1C						IC50 (NCI-H292): > 1 µM
CN1C(=O)C(Cc2ccc3ccccc3c2)N=C(c2ccc3[nH]c(=O)[nH]c3c2)c2cc(Cl)ccc21 (stereo not given)						EC50 [1]: 2.1 µM
CN1C(=O)C(Cc2ccccc2-c2ccccc2)N=C(c2ccc(O)cc2)c2cc(Cl)ccc21 (stereo not given)						EC50 [1]: 2.2 µM

The next lines start with results.

IC50 (MCF7)	IC50 (HL-60)	IC50 (SMMC-7721)	IC50 (A549)	IC50 (SW480)	Structure (SMILES)	further results
> 40 µM	> 40 µM	> 40 µM	> 40 µM	> 40 µM	CC[C@H]1O[C@@]2(C)[C@H](OC(C)=O)[C@@]1(C)O[C@@H](CC(O)/C=C/C=C/c1oc(=O)cc(OC)c1C)[C@@H]2O (stereo not given in full)	
> 40 µM	> 40 µM	> 40 µM	> 40 µM	> 40 µM	CC[C@H]1O[C@@]2(C)[C@H](OCCC(=O)O)[C@@]1(C)O[C@@H](/C=C/C=C/C=C/c1oc(=O)cc(OC)c1C)[C@@H]2O	
> 40 µM	> 40 µM	> 40 µM	> 40 µM	> 40 µM	CC[C@H]1O[C@@]2(C)[C@H](OC(C)=O)[C@@]1(C)O[C@@H](C(O)C(O)/C=C/C=C/c1oc(=O)cc(OC)c1C)[C@@H]2O (stereo not given in full)	
> 40 µM	> 40 µM	> 40 µM	> 40 µM	> 40 µM	CC[C@H]1O[C@@]2(C)[C@H](OC(C)=O)[C@@]1(C)O[C@@H](C(O)C(/C=C/C=C/c1oc(=O)cc(OC)c1C)OC)[C@@H]2O (stereo not given in full)	
> 40 µM	> 40 µM	> 40 µM	> 40 µM	> 40 µM	CC[C@H]1O[C@@]2(C)[C@H](OC(C)=O)[C@@]1(C)O[C@@H](/C=C/C=C/C=O)[C@@H]2O	
> 40 µM	> 40 µM	> 40 µM	> 40 µM	> 40 µM	CC[C@H]1O[C@@]2(C)[C@H](O)[C@@]1(C)O[C@@H](CC(O)/C=C/C=C/c1oc(=O)cc(OC)c1C)[C@@H]2O (stereo not given in full)	
> 40 µM	> 40 µM	18.3 µM	> 40 µM	14.4 µM	CC[C@H]1O[C@@]2(C)[C@H](OC(C)=O)[C@@]1(C)O[C@@H](C(O)/C=C/C(O)/C=C/c1oc(=O)cc(OC)c1C)[C@@H]2O (stereo not given in full)	
> 40 µM	> 40 µM	> 40 µM	> 40 µM	> 40 µM	CC[C@H]1O[C@@]2(C)[C@H](OC(C)=O)[C@@]1(C)O[C@@H](/C=C/C=C/C=C/c1cc(OC)cc(=O)o1)[C@@H]2O	
> 40 µM	> 40 µM	> 40 µM	> 40 µM	> 40 µM	CC[C@H]1O[C@@]2(C)[C@H](OC(C)=O)[C@@]1(C)O[C@@H](C(O)/C=C/C(/C=C/c1oc(=O)cc(OC)c1C)OC)[C@@H]2O (stereo not given in full)	
> 40 µM	> 40 µM	> 40 µM	> 40 µM	> 40 µM	COc1cc(/C=C/C=C/C=C/[C@]2(C)O[C@]3(C)[C@@H](O)[C@](C)(O[C@@H]3C)[C@H]2O)oc(=O)c1	
